Measured values published in DBAASP.
Converted amounts (≈) assume the structure as drawn. “And” between values parts separate entries of the source, which are not always exact repeats. Equal entries are not always repeated. One block for each compound: values may come before it.

Experiments:
Experiment in all cases: ≥ marks a high value that may be exact or a test limit, other limits are often not marked, values filed in µg/mL are converted to µM
[1] = tested on: Staphylococcus aureus ATCC 43300
[2] = tested on: Escherichia coli UB1005
[3] = tested on: Salmonella enterica subsp. enterica serovar Pullorum ATCC 7913
[4] = tested on: Staphylococcus aureus ATCC 25923
[5] = tested on: Candida parapsilosis CGMCC 2.3989
[6] = tested on: Escherichia coli K99
[7] = tested on: Salmonella enterica subsp. enterica serovar Typhimurium C77-31
[8] = tested on: Candida albicans CGMCC 2.2086
[9] = tested on: Escherichia coli 078
[10] = tested on: Candida tropicalis CGMCC 2.1975
[11] = tested on: Salmonella enterica subsp. enterica serovar Typhimurium ATCC 14028
[12] = tested on: Escherichia coli K88
[13] = tested on: Staphylococcus epidermidis ATCC 12228
[14] = tested on: Pseudomonas aeruginosa ATCC 27853
[15] = tested on: Micrococcus luteus ATCC 49732
[16] = tested on: Escherichia coli NCTC 10418
[17] = tested on: Klebsiella pneumoniae ATCC 43816
[18] = tested on: Enterococcus faecalis NCTC 12697
[19] = tested on: Staphylococcus aureus NCTC 12493
[20] = tested on: Staphylococcus aureus NCTC 10788
[21] = tested on: Candida albicans NCYC 1467
[22] = tested on: Cryptococcus neoformans ATCC 32045
[23] = tested on: Staphylococcus aureus ATCC 33591
[24] = tested on: Pseudomonas aeruginosa ATCC 10145
[25] = tested on: Candida albicans ATCC 10231
[26] = tested on: Escherichia coli ATCC 2592
[27] = tested on: Candida albicans

SMILES: CC(C)C[C@H](NC(=O)[C@H](C)NC(=O)CNC(=O)[C@H](CCCN=C(N)N)NC(=O)[C@H](CCCN=C(N)N)NC(=O)[C@H](CCCN=C(N)N)NC(=O)[C@H](CCC(N)=O)NC(=O)[C@H](CCCN=C(N)N)NC(=O)[C@H](CCCN=C(N)N)NC(=O)[C@H](CCCCN)NC(=O)[C@H](CCCCN)NC(=O)[C@H](CCCN=C(N)N)NC(=O)CN)C(=O)N[C@@H](Cc1c[nH]c2ccccc12)C(=O)N[C@@H](CCCCN)C(=O)N[C@@H](CO)C(=O)N[C@@H](CC(C)C)C(=O)N[C@@H](CC(C)C)C(=O)N[C@@H](CCCCN)C(=O)N[C@@H](CC(N)=O)C(=O)N[C@H](C(=O)NCC(=O)N[C@@H](CCCCN)C(=O)N[C@@H](C)C(N)=O)C(C)C [GRKKRRQRRRGALWKSLLKNVGKA]
MIC [16]: 4 µM (≈ 11.4 µg/mL)
MIC [17]: ≥ 32 µM
MIC [18]: ≥ 32 µM
MIC [19]: 16 µM (≈ 45.8 µg/mL)
MIC [20]: 8 µM (≈ 22.9 µg/mL)
MIC [21]: 4 µM (≈ 11.4 µg/mL)
MIC [14]: 8 µM (≈ 22.9 µg/mL)

SMILES: C[C@H](NC(=O)[C@H](Cc1ccccc1)NC(=O)[C@H](CCCCN)NC(=O)[C@H](CCCCN)NC(=O)[C@H](C)NC(=O)[C@H](Cc1ccccc1)NC(=O)[C@H](CCCCN)NC(=O)[C@H](CCCCN)NC(=O)[C@H](C)NC(=O)[C@H](Cc1ccccc1)NC(=O)[C@H](CCCCN)NC(=O)[C@H](CCCCN)NC(=O)[C@H](C)NC(=O)[C@H](Cc1ccccc1)NC(=O)[C@H](CCCCN)NC(=O)[C@H](CCCCN)NC(=O)[C@H](C)NC(=O)[C@H](Cc1ccccc1)NC(=O)[C@@H](N)CCCCN)C(=O)N[C@@H](CCCCN)C(=O)O [KFAKKFAKKFAKKFAKKFAK]
MIC [22]: 4.73 µM (≈ 11.3 µg/mL)
MIC [23]: ≥ 105 µM
MIC [24]: 3.35 µM (≈ 8 µg/mL)
MIC [25]: 44.4 µM (≈ 106 µg/mL)
MIC [26]: 9.46 µM (≈ 22.6 µg/mL)

SMILES: NCCCC[C@H](NC(=O)[C@H](Cc1ccccc1)NC(=O)[C@H](CCCCN)NC(=O)[C@H](CCCCN)NC(=O)[C@H](Cc1ccccc1)NC(=O)[C@H](CCCCN)NC(=O)[C@H](CCCCN)NC(=O)[C@H](Cc1ccccc1)NC(=O)[C@H](CCCCN)NC(=O)[C@H](CCCCN)NC(=O)[C@H](Cc1ccccc1)NC(=O)[C@H](CCCCN)NC(=O)[C@H](CCCCN)NC(=O)[C@H](Cc1ccccc1)NC(=O)[C@H](CCCCN)NC(=O)[C@H](CCCCN)NC(=O)[C@H](Cc1ccccc1)NC(=O)[C@H](CCCCN)NC(=O)[C@H](CCCCN)NC(=O)[C@H](Cc1ccccc1)NC(=O)[C@H](CCCCN)NC(=O)[C@H](CCCCN)NC(=O)[C@H](Cc1ccccc1)NC(=O)[C@H](CCCCN)NC(=O)[C@H](CCCCN)NC(=O)[C@H](Cc1ccccc1)NC(=O)[C@@H](N)CCCCN)C(=O)O [KFKKFKKFKKFKKFKKFKKFKKFKKFK]
MIC [22]: 24.1 µM (≈ 88 µg/mL)
MIC [23]: ≥ 48.4 µM
MIC [24]: ≥ 34.2 µM
MIC [25]: 96.9 µM (≈ 354 µg/mL)
MIC [26]: 6.2 µM (≈ 22.6 µg/mL)

SMILES: CC[C@H](C)[C@H](NC(=O)CNC(=O)[C@H](CCCCN)NC(=O)[C@H](Cc1c[nH]c2ccccc12)NC(=O)[C@H](CC(C)C)NC(=O)[C@H](CC(C)C)NC(=O)[C@H](Cc1c[nH]c2ccccc12)NC(=O)[C@H](CCCCN)NC(=O)CNC(=O)[C@@H](NC(=O)[C@@H](N)CCCCN)[C@@H](C)CC)C(=O)N[C@@H](CCCCN)C(=O)N[C@@H](CCCCN)C(=O)N[C@H](C(=O)NCC(=O)N[C@@H](CCCCN)C(=O)N[C@@H](Cc1c[nH]c2ccccc12)C(=O)N[C@@H](CC(C)C)C(N)=O)[C@@H](C)CC [KIGKWLLWKGIKKIGKWL]
MIC [5]: 8 µM (≈ 17.6 µg/mL)
MIC [8]: 4 µM (≈ 8.78 µg/mL)
MIC [10]: 2 µM (≈ 4.39 µg/mL)
MIC [27]: 5.66 µM and 4 µM

SMILES: CC(C)C[C@H](NC(=O)[C@H](CCCCN)NC(=O)[C@H](CCCCN)NC(=O)[C@H](CC(C)C)NC(=O)[C@H](CC(C)C)NC(=O)[C@H](CCCCN)NC(=O)[C@H](CCCCN)NC(=O)[C@H](CC(C)C)NC(=O)[C@H](CC(C)C)NC(=O)[C@H](CCCCN)NC(=O)[C@H](CCCCN)NC(=O)[C@H](CC(C)C)NC(=O)[C@H](CC(C)C)NC(=O)[C@H](CCCCN)NC(=O)[C@H](CCCCN)NC(=O)[C@H](CC(C)C)NC(=O)[C@H](CC(C)C)NC(=O)[C@H](CCCCN)NC(=O)[C@H](CCCCN)NC(=O)[C@@H](N)CC(C)C)C(=O)O [LKKLLKKLLKKLLKKLLKKL]
MIC [22]: ≥ 36.2 µM
MIC [23]: ≥ 103 µM
MIC [24]: 25.5 µM (≈ 62 µg/mL)
MIC [25]: > 206 µM
MIC [26]: ≥ 36.2 µM

More lines, now with the values ahead:

MIC [1]: 16 µM (≈ 22.8 µg/mL)
MIC [2]: 16 µM (≈ 22.8 µg/mL)
MIC [3]: 16 µM (≈ 22.8 µg/mL)
MIC [4]: 32 µM (≈ 45.7 µg/mL)
MIC [5]: ≥ 64 µM
MIC [6]: 8 µM (≈ 11.4 µg/mL)
MIC [7]: 8 µM (≈ 11.4 µg/mL)
MIC [8]: ≥ 128 µM
MIC [9]: 16 µM (≈ 22.8 µg/mL)
MIC [10]: ≥ 64 µM
MIC [11]: 32 µM (≈ 45.7 µg/mL)
MIC [12]: 16 µM (≈ 22.8 µg/mL)
MIC [13]: 16 µM (≈ 22.8 µg/mL)
MIC [14]: > 128 µM
SMILES: CC[C@H](C)[C@H](NC(=O)[C@H](CCCN=C(N)N)NC(=O)[C@H](C)NC(=O)[C@H](C)N)C(=O)N[C@H](C(=O)N[C@@H](CC(C)C)C(=O)N[C@@H](CCCN=C(N)N)C(=O)N[C@@H](CCCN=C(N)N)C(=O)N[C@@H](CCCN=C(N)N)C(=O)N[C@@H](Cc1ccccc1)C(=O)N[C@@H](CCCN=C(N)N)C(N)=O)[C@@H](C)CC [AARIILRRRFR]

MIC [15]: 1.3 µM (≈ 2.53 µg/mL)
SMILES: CC[C@H](C)[C@H](NC(=O)[C@H](CO)NC(=O)[C@@H]1CCCN1C(=O)[C@H](CC(C)C)NC(=O)[C@H](CC(C)C)NC(=O)[C@H](CO)NC(=O)[C@H](CC(C)C)NC(=O)[C@@H](N)Cc1ccccc1)C(=O)N[C@H](C(=O)N[C@@H](CO)C(=O)NCC(=O)N[C@@H](C)C(=O)N[C@H](C(=O)N[C@@H](CO)C(=O)N[C@@H](CC(C)C)C(=O)N[C@@H](C)C(=O)N[C@@H](CCCCN)C(=O)N[C@@H](CCCCN)C(=O)N[C@@H](CC(C)C)C(N)=O)C(C)C)C(C)C [FLSLLPSIVSGAVSLAKKL]
